From paper PMC8949615, “Inhibitory Effect of Polyphenols from the Whole Green Jackfruit Flour against α-Glucosidase, α-Amylase, Aldose Reductase and Glycation at Multiple Stages and Their Interaction: Inhibition Kinetics and Molecular Simulations” (Molecules, 2022)
pIC50, pKi: −log10 of the molar value. Values joined by “and” are separate entries in the source; they are usually repeats but may differ in a detail not shown here. Equal values may be shown once. Marks after values point to notes of the source that are not given here.

What was measured:
HSA/fructose system [1] = experiment: HSA glycation, early stage: fructosamine (NBT test); type: biochemical, human; parameters: dose or concentration left out as unconfirmed
HSA/fructose system [2] = experiment: HSA glycation, intermediate stage: protein carbonyls; type: biochemical, human
HSA/fructose system [3] = experiment: HSA glycation: protein thiol group protection; type: biochemical, human; details: for thiol shielding / thiol group protection: 100 µg/mL; for Thiols Group: HSA/fructose
[4] = DPPH radical scavenging activity; details: mean ± SE
[5] = ABTS radical scavenging activity; details: mean ± SE
[6] = superoxide radical scavenging activity; details: mean ± SE
yeast α-glucosidase = type: biochemical; details: mean ± SE
α-amylase = target: T1, α-amylase (Sus scrofa, UniProt P00690); experiment: α-amylase inhibition kinetics (Lineweaver-Burk, secondary plot); type: biochemical, porcine
T1 sequence (P00690 16-511): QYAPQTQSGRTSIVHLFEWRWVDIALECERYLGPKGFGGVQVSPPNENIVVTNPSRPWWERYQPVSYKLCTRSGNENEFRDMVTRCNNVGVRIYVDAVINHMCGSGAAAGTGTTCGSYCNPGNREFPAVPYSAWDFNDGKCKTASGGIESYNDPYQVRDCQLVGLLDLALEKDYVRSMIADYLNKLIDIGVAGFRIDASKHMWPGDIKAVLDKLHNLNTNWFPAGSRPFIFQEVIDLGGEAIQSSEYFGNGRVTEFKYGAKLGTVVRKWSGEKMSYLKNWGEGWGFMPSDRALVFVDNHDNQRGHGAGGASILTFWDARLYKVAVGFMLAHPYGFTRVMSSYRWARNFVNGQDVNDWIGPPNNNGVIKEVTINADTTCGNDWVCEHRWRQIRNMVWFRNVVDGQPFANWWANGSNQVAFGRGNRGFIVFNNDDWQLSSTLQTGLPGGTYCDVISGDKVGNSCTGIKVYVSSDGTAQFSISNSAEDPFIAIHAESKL

α-glucosidase = α-glucosidase inhibition kinetics (Lineweaver-Burk, secondary plot); type: biochemical, yeast; details: for Mode of Inhibition, α-Glucosidase: from double reciprocal plot; for Ki, α-Glucosidase: secondary plot, mean ± SE
aldose reductase [7] = target: T2, aldose reductase (Homo sapiens, UniProt P15121); experiment: aldose reductase inhibition kinetics (Lineweaver-Burk, secondary plot); type: biochemical; details: for Mode of Inhibition, Aldose reductase: from double reciprocal plot
[8] = parameters: method as in earlier work; details: ref [9] of the supplement, cited from earlier work
[9] = target: T3, type-VI B porcine pancreatic α-amylase (Sus scrofa, UniProt P00690); experiment: α-amylase inhibition assay; type: biochemical; details: mean ± SE
T3 sequence (P00690 16-511): T1 sequence (P00690 16-511)

aldose reductase [10] = target: T2, aldose reductase; experiment: aldose reductase inhibition assay; type: biochemical; details: mean ± SE

| Structure (SMILES) | Fructosamine (HSA/fructose system [1]; week 1) | Fructosamine (HSA/fructose system [1]; week 2) | Fructosamine (HSA/fructose system [1]; week 3) | Protein carbonyl Content (HSA/fructose system [2]; week 1) | Protein carbonyl Content (HSA/fructose system [2]; week 2) | Protein carbonyl Content (HSA/fructose system [2]; week 3) | thiol shielding / thiol group protection (HSA/fructose system [3]) | Thiols Group (HSA/fructose system [3]; week 1) | Thiols Group (HSA/fructose system [3]; week 2) | Thiols Group (HSA/fructose system [3]; week 3) | EC50 Radical Scavenging Activities DPPH [4] | EC50 Radical Scavenging Activities ABTS [5] | EC50 Radical Scavenging Activities Superoxide [6] | IC50 α-Glucosidase (yeast α-glucosidase) | Vmax, α-Amylase (α-amylase; inhibitor at IC40) | Mode of Inhibition, α-Glucosidase (α-glucosidase) | Vmax, α-Glucosidase (α-glucosidase; inhibitor at IC20) | Vmax, α-Glucosidase (α-glucosidase; inhibitor at IC40) | Vmax, α-Glucosidase (α-glucosidase; inhibitor at IC60) | Mode of Inhibition, Aldose reductase (aldose reductase [7]) | further results |
| --- | --- | --- | --- | --- | --- | --- | --- | --- | --- | --- | --- | --- | --- | --- | --- | --- | --- | --- | --- | --- | --- |
| N=C(N)NN [Aminoguanidine, aminoguanidine, reference compound] | 28.50 ± 1.16 ^d mmol/mg Protein | 30.00 ± 1.00 ^d mmol/mg Protein | 31.75 ± 0.97 ^d mmol/mg Protein | 0.64 ± 0.54 ^e nmol/mg protein | 0.66 ± 1.05 ^e nmol/mg protein | 0.70 ± 1.11 ^e nmol/mg protein | 71% | 0.95 ± 1.46 ^b nmol/mg protein | 1.04 ± 1.00 ^b nmol/mg protein | 1.17 ± 0.89 ^b nmol/mg protein |  |  |  |  |  |  |  |  |  |  |  |
| COc1ccc(O)c(C(C)(C)C)c1 [BHA, butylated hydroxyl anisole, reference compound] |  |  |  |  |  |  |  |  |  |  | 40.25 ± 0.30 ^d μg/mL | 31.00 ± 0.55 ^d μg/mL | 64.75 ± 0.13 ^d μg/mL |  |  |  |  |  |  |  |  |
| O=C(O)C=Cc1ccc(O)c(O)c1 [Caffeic acid, 3-(3,4-Dihydroxyphenyl)-2-propenoic acid] | 26.82 ± 0.14 ^a mmol/mg Protein | 27.06 ± 0.13 ^a mmol/mg Protein | 28.02 ± 1.04 ^a mmol/mg Protein | 0.49 ± 2.17 ^b nmol/mg protein | 0.57 ± 1.25 ^b nmol/mg protein | 0.57 ± 2.22 ^b nmol/mg protein | 74–83% | 0.69 ± 0.55 ^a nmol/mg protein | 0.79 ± 0.05 ^a nmol/mg protein | 0.80 ± 0.88 ^a nmol/mg protein | 18.50 ± 0.08 ^b μg/mL | 12.44 ± 1.60 ^b μg/mL | 30.13 ± 2.05 ^b μg/mL | 8.00 ± 0.40 ^a µg/mL | 25.75 10^3(µM/min)^−1 | Competitive | 39.98 10^3(µM/min)^−1 | 40.40 10^3(µM/min)^−1 | 40.37 10^3(µM/min)^−1 | Non-competitive | Ki, α-Glucosidase (α-glucosidase; listed as CA): 1.03 mg and 0.52 ± 0.02 mg; Vmax, Aldose reductase (aldose reductase [7]; inhibitor at IC20): 13.35 10^3(µM/min)^−1; Vmax, Aldose reductase (aldose reductase [7]; inhibitor at IC40): 10.15 10^3(µM/min)^−1; Vmax, Aldose reductase (aldose reductase [7]; inhibitor at IC60): 5.05 10^3(µM/min)^−1 |
| O=c1c(O)c(-c2ccc(O)c(O)c2)oc2cc(O)cc(O)c12 [Quercetin] |  |  |  |  |  |  |  |  |  |  |  |  |  |  |  |  |  |  |  |  | adverse effects on serum electrolytes, renal, haematological, and liver function blood parameters ([8]; >1000 mg/day for several months): no adverse effects; safety and tolerability in human clinical trials [8]: safe and well-tolerated |
| COc1cc(C(=O)O)cc(OC)c1O [Syringic acid, 4-Hydroxy-3,5-dimethoxybenzoic acid] | 26.30 ± 1.21 ^b mmol/mg Protein | 26.99 ± 1.90 ^b mmol/mg Protein | 26.41 ± 1.18 ^b mmol/mg Protein | 0.49 ± 1.06 ^c nmol/mg protein | 0.54 ± 0.62 ^c nmol/mg protein | 0.54 ± 1.32 ^c nmol/mg protein | 74–83% | 0.64 ± 0.62 ^a nmol/mg protein | 0.76 ± 0.53 ^a nmol/mg protein | 0.78 ± 0.34 ^a nmol/mg protein | 16.00 ± 0.13 ^a μg/mL | 11.40 ± 2.04 ^a μg/mL | 28.00 ± 1.19 ^a μg/mL | 7.50 ± 1.05 ^a µg/mL | 51.11 10^3(µM/min)^−1 | Competitive | 33.55 10^3(µM/min)^−1 | 33.43 10^3(µM/min)^−1 | 33.79 10^3(µM/min)^−1 | Non-competitive | pIC50 [9]: 3.89; pIC50 (aldose reductase [10]): 4.82; Mode of Inhibition, α-Amylase (α-amylase; from double reciprocal plot): Competitive; Vmax, α-Amylase (α-amylase; inhibitor at IC20): 51.10 10^3(µM/min)^−1; Vmax, α-Amylase (α-amylase; inhibitor at IC60): 50.95 10^3(µM/min)^−1; pKi (α-amylase; secondary plot, mean ± SE): 5.20; Ki, α-Glucosidase (α-glucosidase): 0.96 ± 0.22 mg; Ki, α-Glucosidase (α-glucosidase; listed as SA): 1.25 mg; Vmax, Aldose reductase (aldose reductase [7]; inhibitor at IC20): 34.47 10^3(µM/min)^−1; Vmax, Aldose reductase (aldose reductase [7]; inhibitor at IC40): 20.05 10^3(µM/min)^−1; Vmax, Aldose reductase (aldose reductase [7]; inhibitor at IC60): 11.50 10^3(µM/min)^−1; pKi (aldose reductase [7]; secondary plot, mean ± SE): 5.08 |
